Test results taken from patent publication EP4768499A1, “MACROCYCLIC PEPTIDE COMPOUND HAVING CELL MEMBRANE PERMEABILITY AND METABOLIC STABILITY, AND LIBRARY CONTAINING SAME” (Chugai Seiyaku Kabushiki Kaisha, priority 2023, dated 2025).
Read-outs that look alike come from different tables or passages of the source. Starred links: 1 amine or outer side, 2 acyl side, 3 side chain; linkers in the order of their positions; H or OH if unused. Positions of bridges follow the written chain, without caps; N, C: chain ends. Non-standard residues stand in square brackets, D forms with d. Residues, ends and D or L forms follow the SMILES beside them. *: point of attachment. NMedβ3hAla = C[C@H](CC(=O)[*:2])N(C)[*:1]; NMeF = CN[C@@H](Cc1ccccc1)C(=O)O; NMeGABA = CN(CCCC(=O)[*:2])[*:1]; NMeI = CC[C@H](C)[C@H](NC)C(=O)O; NMeT = CN[C@H](C(=O)O)[C@@H](C)O; hPhe = N[C@@H](CCc1ccccc1)C(=O)O; NMeβAla = CN(CCC(=O)[*:2])[*:1]; NMeD = CN[C@@H](CC(=O)O)C(=O)O; NMeL = CN[C@@H](CC(C)C)C(=O)O; dNMeV = CN[C@@H](C(=O)O)C(C)C; NMeV = CN[C@H](C(=O)O)C(C)C; NMeAbu = CC[C@H](NC)C(=O)O; NMeA = CN[C@@H](C)C(=O)O; Piperidide = C1CCN(*)CC1; Abu = CC[C@H](N)C(=O)O; NBuGly = CCCCNCC(=O)O; βAla = NCCC(=O)O; Sar = CNCC(=O)O; tBu = CC(C)(C)*

Legend:
[1] = Metabolic stability test: liver microsomal stability assay; type: in vitro ADME, mouse; conditions: for microsomal CLint at 1 µM: male, pH 7.4, presence of NADPH, read-out: Mouse Hepatic Microsome CLh,int NADPH(+)
[2] = Membrane permeability test using Caco-2 cells with preincubation; type: in vitro ADME; conditions: Caco-2
[3] = tested on: Caco-2 cells; experiment: as above; type: in vitro ADME
[4] = mouse liver microsomes 0.5 mg protein/mL, compound 1 µM
[5] = mouse liver microsomes 0.5 mg protein/mL, compound 1 µM, absence of NADPH
[6] = preincubation 20 to 24 hours, Apical FaSSIF/HBSS pH 6.0, Basal HBSS 4% BSA pH 7.4, 180 minutes, read-out: Caco2 Papp
[7] = Caco-2 cells, preincubation 20 to 24 hours, apical FaSSIF/HBSS 1% DMSO pH 6.0, basal HBSS 4% BSA pH 7.4, basal sample at 180 minutes

Row | Structure (SMILES) | microsomal CLint at 1 µM [1, 4] | Mouse Hepatic Microsome CLh,int NADPH(-) [1, 5] | Papp A→B [2, 6] | Caco2 Papp (10^-6 cm/sec) [3, 7] | Mouse Hepatic Microsome CLh,int NADPH(-) [1] | Papp A→B [2] | Caco2 Papp (10^-6 cm/sec) ([3]; Caco-2)
1 | CCCCN1CC(=O)N(C)[C@@H](CC(C)C)C(=O)N[C@@H](COC(C)(C)C)C(=O)N(C)[C@@H](Cc2ccccc2)C(=O)N(C)[C@@H](C)C(=O)N(C)[C@@H](C(C)C)C(=O)N[C@H](C(=O)N2CCCCC2)CC(=O)N(C)[C@H](C(C)C)C(=O)N(C)[C@@H](Cc2ccccc2)C(=O)N2CCC[C@H]2C(=O)N(C)[C@@H](C(C)C)C(=O)N(C)[C@@H](CC(C)C)C(=O)N[C@@H]([C@@H](C)O)C1=O [pd123] ([dNMeV][NMeF]P[NMeV][NMeL]T[NBuGly][NMeL]S(tBu)[NMeF][NMeA][NMeV]D-Piperidide; lactam N-13) | 31 µL/min/mg | 36.0 µL/min/mg Protein | 0.56 ×10⁻⁶ cm/s | 0.56 10^-6 cm/sec | – | – | –
2 | CCCCN1CC(=O)N(C)[C@@H](CC)C(=O)N[C@H](C(=O)N2CCCCC2)CC(=O)N(C)[C@@H](C)C(=O)N[C@@H]([C@@H](C)CC)C(=O)N(C)[C@@H](Cc2ccccc2)C(=O)N(C)[C@@H](CC(C)C)C(=O)N[C@@H](C(C)C)C(=O)N(C)CC(=O)N[C@@H](CC(C)C)C(=O)N(C)[C@@H](Cc2ccccc2)C(=O)N(C)[C@@H](C)C(=O)N[C@@H](CC(C)C)C1=O [pd099] ([NMeA]I[NMeF][NMeL]V[Sar]L[NMeF][NMeA]L[NBuGly][NMeAbu]D-Piperidide; lactam N-13) | 30.3 µL/min/mg | 27.8 µL/min/mg Protein | 0.41 ×10⁻⁶ cm/s | 0.41 10^-6 cm/sec | – | – | –
3 | CC(C)C[C@@H]1NC(=O)[C@H]([C@@H](C)O)N(C)C(=O)[C@@H](C(C)C)NC(=O)C[C@@H](C(=O)N2CCCCC2)NC(=O)[C@H](C(C)C)N(C)C(=O)[C@H](C)N(C)C(=O)[C@H](C(C)C)NC(=O)[C@H](Cc2ccccc2)N(C)C(=O)[C@@H]2CCCN2C(=O)[C@H](CC(C)C)N(C)C(=O)CN(C)C(=O)[C@H](CCc2ccccc2)NC(=O)[C@H](CC(C)C)N(C)C(=O)[C@H](C(C)C)N(C)C1=O [pd040] ([dV][NMeT]L[NMeV][NMeL][hPhe][Sar][NMeL]P[NMeF]V[NMeA][NMeV]D-Piperidide; lactam N-14) | 24.8 µL/min/mg | 22.3 µL/min/mg Protein | 0.17 ×10⁻⁶ cm/s | 0.17 10^-6 cm/sec | – | – | –
4 | CCCCN1CC(=O)N[C@@H](C)C(=O)N(C)[C@@H](Cc2ccccc2)C(=O)N[C@@H](CC(C)C)C(=O)N[C@@H](C)C(=O)N(C)[C@@H](C(C)C)C(=O)N[C@H](C(=O)N2CCCCC2)CC(=O)N[C@H](C(C)C)C(=O)N(C)[C@@H](Cc2ccccc2)C(=O)N[C@@H](CC)C(=O)N(C)[C@@H](C(C)C)C(=O)N(C)CCC(=O)N[C@@H]([C@@H](C)O)C(=O)N(C)[C@@H](CC(C)C)C1=O [pd019] ([dV][NMeF][Abu][NMeV][NMeβAla]T[NMeL][NBuGly]A[NMeF]LA[NMeV]D-Piperidide; lactam N-14) | 34.7 µL/min/mg | 24.9 µL/min/mg Protein | < 0.11 ×10⁻⁶ cm/s | <0.11 10^-6 cm/sec | – | – | –
5 | CC[C@H](C)[C@H]1C(=O)NCC(=O)N(C)[C@@H](CC(C)C)C(=O)N(C)[C@@H](C(C)C)C(=O)N(C)[C@@H](C)C(=O)N(C)[C@H](C(=O)N2CCCCC2)CC(=O)N(C)[C@@H](C)C(=O)N[C@@H](CC(C)C)C(=O)N(C)[C@@H](CC(C)C)C(=O)N[C@@H](COC(C)(C)C)C(=O)N(C)[C@@H](Cc2ccccc2)C(=O)N[C@@H](C)C(=O)N(C)[C@@H](Cc2ccccc2)C(=O)N1C [pd155] ([NMeA]L[NMeL]S(tBu)[NMeF]A[NMeF][NMeI]G[NMeL][NMeV][NMeA][NMeD]-Piperidide; lactam N-13) | 48.8 µL/min/mg | 37.2 µL/min/mg Protein | 0.87 ×10⁻⁶ cm/s | 0.87 10^-6 cm/sec | – | – | –
6 | CCCCN1CC(=O)N(C)[C@@H](Cc2ccccc2)C(=O)N[C@@H](COC(C)(C)C)C(=O)N(C)[C@@H](CC(C)C)C(=O)NCCC(=O)N(C)[C@@H](C)C(=O)N(C)[C@@H]([C@@H](C)CC)C(=O)N[C@@H](CC(C)C)C(=O)N(C)[C@H](C(=O)N2CCCCC2)CC(=O)N(C)CCC(=O)N(C)[C@@H](CC(C)C)C(=O)N[C@@H]([C@@H](C)CC)C(=O)N(C)[C@@H](Cc2ccccc2)C1=O [pd154] ([NMeβAla][NMeL]I[NMeF][NBuGly][NMeF]S(tBu)[NMeL][βAla][NMeA][NMeI]L[NMeD]-Piperidide; lactam N-13) | 41.7 µL/min/mg | 34.3 µL/min/mg Protein | 0.82 ×10⁻⁶ cm/s | 0.82 10^-6 cm/sec | – | – | –
7 | CC[C@H](C)[C@@H]1NC(=O)[C@H](CC(C)C)N(C)C(=O)[C@H](CC(C)C)NC(=O)CCN(C)C(=O)C[C@@H](C)N(C)C(=O)[C@H](CC(C)C)N(C)C(=O)CNC(=O)[C@@H]2CCCN2C(=O)[C@H](CC(C)C)N(C)C(=O)CCNC(=O)[C@H]([C@@H](C)CC)N(C)C(=O)[C@H](CCc2ccccc2)NC(=O)[C@H](Cc2ccccc2)N(C)C1=O [pd141] (cyclo(G[NMeL][NMedβ3hAla][NMeβAla]L[NMeL]I[NMeF][hPhe][NMeI][βAla][NMeL]P)) | – | – | – | – | 21.1 µL/min/mg Protein | 0.24 ×10⁻⁶ cm/s | 0.24 10^-6 cm/sec
8 | CC[C@@H]1NC(=O)[C@H](C(C)C)N(C)C(=O)[C@H](C)N(C)C(=O)[C@H](C(C)C)N(C)C(=O)[C@H](CC)N(C)C(=O)[C@H](Cc2ccccc2)N(C)C(=O)[C@H]([C@@H](C)O)N(C)C(=O)CNC(=O)[C@H](CC(C)C)N(C)C(=O)[C@H](C(C)C)NC(=O)[C@H](COC(C)(C)C)NC(=O)[C@H](CC(C)C)N(C)C(=O)[C@@H](C(C)C)NC(=O)C[C@@H](C)N(C)C1=O [pd068] (cyclo([Abu][NMedβ3hAla][dV][NMeL]S(tBu)V[NMeL]G[NMeT][NMeF][NMeAbu][NMeV][NMeA][NMeV])) | 15.7 µL/min/mg | 12.5 µL/min/mg Protein | 0.27 ×10⁻⁶ cm/s | 0.27 10^-6 cm/sec | – | – | –
9 | CC[C@H](C)[C@@H]1NC(=O)[C@H](CC(C)C)N(C)C(=O)CN(C)C(=O)C[C@@H](C(=O)N2CCCCC2)N(C)C(=O)CNC(=O)[C@H](C)N(C)C(=O)[C@H](C(C)C)N(C)C(=O)[C@H](C)N(C)C(=O)[C@H](Cc2ccccc2)N(C)C(=O)[C@H](CC(C)C)NC(=O)[C@H](Cc2ccccc2)N(C)C(=O)[C@H](C(C)C)NC(=O)[C@H](CC(C)C)N(C)C1=O [pd156] ([Sar][NMeL]I[NMeL]V[NMeF]L[NMeF][NMeA][NMeV][NMeA]G[NMeD]-Piperidide; lactam N-13) | 34.1 µL/min/mg | 23.7 µL/min/mg Protein | 0.39 ×10⁻⁶ cm/s | 0.39 10^-6 cm/sec | – | – | –

Next, values leading:

Row | microsomal CLint at 1 µM [1, 4] | Mouse Hepatic Microsome CLh,int NADPH(-) [1, 5] | Papp A→B [2, 6] | Caco2 Papp (10^-6 cm/sec) [3, 7] | Mouse Hepatic Microsome CLh,int NADPH(-) [1] | Papp A→B [2] | Caco2 Papp (10^-6 cm/sec) ([3]; Caco-2) | Structure (SMILES)
10 | 25.5 µL/min/mg | 21.3 µL/min/mg Protein | 0.08 ×10⁻⁶ cm/s | 0.08 10^-6 cm/sec | – | – | – | CCCCN1CC(=O)N[C@@H]([C@@H](C)CC)C(=O)N(C)[C@@H](CC(C)C)C(=O)N[C@H](C(=O)N2CCCCC2)CC(=O)N(C)[C@@H](C)C(=O)N(C)[C@@H](CC(C)C)C(=O)N[C@@H]([C@@H](C)O)C(=O)N(C)[C@@H](Cc2ccccc2)C(=O)N[C@@H](CC)C(=O)N(C)[C@@H](Cc2ccccc2)C(=O)N[C@@H](CC(C)C)C(=O)N(C)[C@@H]([C@@H](C)CC)C(=O)N[C@@H](CC(C)C)C1=O [pd103] ([NMeA][NMeL]T[NMeF][Abu][NMeF]L[NMeI]L[NBuGly]I[NMeL]D-Piperidide; lactam N-13)
11 | 39.4 µL/min/mg | 40.1 µL/min/mg Protein | 0.09 ×10⁻⁶ cm/s | 0.09 10^-6 cm/sec | – | – | – | CC[C@H](C)[C@@H]1NC(=O)[C@H](C)NC(=O)[C@H](CC(C)C)N(C)C(=O)[C@H](COC(C)(C)C)NC(=O)[C@H](CC(C)C)N(C)C(=O)[C@@H]2CCCN2C(=O)[C@H](Cc2ccccc2)NC(=O)CCN(C)C(=O)[C@H](CC(C)C)N(C)C(=O)CCCN(C)C(=O)C[C@@H](C(=O)N2CCCCC2)NC(=O)[C@H](Cc2ccccc2)N(C)C(=O)[C@H](CC(C)C)NC(=O)[C@H](CC)N(C)C1=O [pd017] ([NMeGABA][NMeL][NMeβAla]FP[NMeL]S(tBu)[NMeL]AI[NMeAbu]L[NMeF]D-Piperidide; lactam N-14)
12 | 43.3 µL/min/mg | 26.2 µL/min/mg Protein | 0.03 ×10⁻⁶ cm/s | 0.03 10^-6 cm/sec | – | – | – | CC[C@@H]1NC(=O)[C@H](CC(C)C)N(C)C(=O)[C@H](C)NC(=O)[C@@H]2CCCN2C(=O)[C@H]([C@@H](C)CC)NC(=O)[C@H](CC(C)C)N(C)C(=O)[C@H](CCc2ccccc2)NC(=O)CCCN(C)C(=O)C[C@@H](C(=O)N2CCCCC2)NC(=O)[C@H](CC(C)C)N(C)C(=O)[C@H]([C@@H](C)CC)NC(=O)[C@H](C)N(C)C(=O)[C@H]([C@@H](C)O)NC(=O)[C@H](Cc2ccccc2)N(C)C1=O [pd023] ([NMeGABA][hPhe][NMeL]IPA[NMeL][Abu][NMeF]T[NMeA]I[NMeL]D-Piperidide; lactam N-14)
13 | 36.2 µL/min/mg | 27.4 µL/min/mg Protein | 0.82 ×10⁻⁶ cm/s | 0.82 10^-6 cm/sec | – | – | – | CC[C@H](C)[C@@H]1NC(=O)[C@H](C)N(C)C(=O)C[C@@H](C(=O)N2CCCCC2)NC(=O)[C@H](CC)N(C)C(=O)[C@H](COC(C)(C)C)NC(=O)[C@H](CC(C)C)N(C)C(=O)[C@H](C)N(C)C(=O)[C@H](CC(C)C)N(C)C(=O)[C@H](Cc2ccccc2)N(C)C(=O)CN(C)C(=O)[C@H]([C@@H](C)O)NC(=O)[C@H](CC(C)C)N(C)C(=O)[C@H](C(C)C)N(C)C(=O)[C@H](Cc2ccccc2)N(C)C1=O [pd004] ([NMeA]I[NMeF][NMeV][NMeL]T[Sar][NMeF][NMeL][NMeA][NMeL]S(tBu)[NMeAbu]D-Piperidide; lactam N-14)
